# Data published in publication PMC7023466, “Novel N,N′-Disubstituted Acylselenoureas as Potential Antioxidant and Cytotoxic Agents” (Antioxidants, 2020).
# How the values were obtained:
# HT-29 cells [1] = experiment: Protective effects against H2O2-induced oxidative stress (MTT); assay type: cell-based, human; details: for increase fold of cell survival: compound 0.03 mg/mL, 12 h
# Description: An H2O2-induced oxidative damage model on HT-29 cells was established, and the cell viability was evaluated by MTT assay, as a measurement of the antioxidant activity of the compounds. Asc was used as a positive control. Briefly, 1 × 10^4 HT-29 cells per well were grown in 96-well plates. After 12 h of incubation, DMSO; 4b, 8c, 9c, and 10b compounds; or Asc were added to each well at concentrations of 0.03 and 0.003 mg/mL, and incubated for 1 h. Subsequently, H2O2 (200, 250, and 300 µM) was added and the cells were incubated for 12 h to induce cell damage. An MTT assay was performed as mentioned previously. For each treatment, the mean cell viability was calculated from three independent experiments. The DMSO-treated controls were assigned with a cell viability value of 100% (Vcontrol). The results are expressed as the increase fold of cell survival, as follows:(3) Increase fold of cell survival = (Vsample−Vsample + H2O2)/VControl−VH2O2 where Vsample refers to the viability of the cells only treated with the corresponding compound, VH2O2 refers to the viability of the HT-29 cells exposed to H2O2, and Vsample + H2O2 refers to the cell survival of each treatment with a compound and H2O2. The data are expressed as increase fold of cell survival ± standard error of the mean (SEM) in at least three independent experiments performed in quadruplicates.
# MCF-7 cells = experiment: MTT cell viability assay, MCF-7; assay type: cell-based, human; details: Homo sapiens, MCF7, 48 h, read-out: Growth (%) MCF-7
# Description: (§1) The cell viability assay of each compound was carried out using the MTT assay. Each compound was dissolved in dimethyl sulfoxide (DMSO) at a concentration of 0.01 M. Serial dilutions were prepared with a non-supplemented culture medium. The effect of each compound on the cell viability was determined at two different concentrations (10 and 50 µM) in MCF-7, HTB-54, and HT-29 cells. In addition, the selected compounds were tested at six different concentrations between 0.1–100 µM in MCF-7, T47D, H1299, HTB-54, and 184B5 cells.
# (§2) Briefly, 1 × 10^4 tumor cells/well or 2 × 10^4 non-tumorigenic cells/well were grown in 96-well plates for 12 h. Then, these cells were incubated with either DMSO (control) or a different concentration of each of the tested compounds for 48 h. Three hours before the termination point, 20 µL of MTT were added to measure the cellular viability. The resultant formazan crystals were dissolved in 50 µL of DMSO, and the absorbance was measured at 570 and 630 nm. The results are expressed as IC50, the half maximal inhibitory concentration. This value was calculated using OriginPro 8.5.1. software (OriginLab, Northampton, MA, USA) by nonlinear curve fitting. Furthermore, the selectivity index (SI) was calculated as the ratio of the IC50 values determined for the non-malignant and the tumor cells (IC50 (184B5)/IC50 (MCF-7). The data were obtained from at least three independent experiments performed in quadruplicates.
# HT-29 cells [2] = experiment: MTT cell viability assay, HT-29; assay type: cell-based; details: Homo sapiens, 48 h, read-out: Growth (%) HT-29
# Description: as §1, §2
# HTB-54 cells = experiment: MTT cell viability assay, HTB-54; assay type: cell-based; details: Homo sapiens, HTB-54, 48 h, read-out: Growth (%) HTB-54
# Description: as §1, §2
# [3] = set-up: method as in doi:10.1007/s11172-013-0228-5; details: conditions not tested by the authors; cited from earlier work
compound,measurement,setting,value
"O=C1O[C@H]([C@@H](O)CO)C(O)=C1O [Asc, Ascorbic acid, reference compound]",protective effect against H2O2-induced oxidative stress,HT-29 cells [1]; 0.003 mg/mL,disappeared
COc1ccc(NC(=[Se])NC(=O)c2cc3ccccc3s2)cc1 [Compound 9c],activity at 10 µM,MCF-7 cells; 10 μM,63%
same,activity at 50 µM,MCF-7 cells; 50 μM,49.2%
same,activity at 10 µM,HT-29 cells [2]; 10 μM,47.9%
same,activity at 50 µM,HT-29 cells [2]; 50 μM,37.3%
same,activity at 10 µM,HTB-54 cells; 10 μM,64.2%
same,activity at 50 µM,HTB-54 cells; 50 μM,7.1%
same,increase fold of cell survival,HT-29 cells [1]; H2O2 200 µM,≤ 0.8 fold
same,increase fold of cell survival,HT-29 cells [1]; H2O2 250 µM,≤ 1.7 fold
same,increase fold of cell survival,HT-29 cells [1]; H2O2 300 µM,up to 3.6 fold
O=[Se]([O-])[O-].[Na+].[Na+] [sodium selenite],DPPH radical scavenging activity,[3],only showed DPPH radical scavenging activity at pH 3.0
